Laboratory results published in patent publication US20160033480A1, “Immunovir and Components, Immunovir A, B, C, D Utility and Useful Processes” (priority 2013, published 2016).

Tests used:
[1] = test system: Yac-1 cells; experiment: Mononuclear killer cell activity derived from mouse's spleen (51Cr release from Yac-1 cells); format: in vivo, BALB/c mice; conditions: CP 200 and 100 mg/kg day 1 and 2; immunovir 10 mg/kg every day; spleens day 7
Method: Twenty male BALB/c mice aged 8 weeks were divided into group A, B, C, and D. Mice in group A were injected with 0.20 mL of normal saline intravenously. […] Group C received immunovir 10 mg/kg.b.w every day. Group D received CP as group B and immunovir as Group C. All mice's spleens were excised at day 7 and spleen-derived mononuclear cells were isolated by Ficol-paque centrifugation.
Yac-1 cells (2×10^6/mL) were labeled with R20C containing 1 uc/mL of ^51Cr-chromate for 60 minutes at 37° C.
Mouse's spleen-derived mononuclear cells (killer cells) (3×10^6) and ^51Cr-chromate-labeled Yac-1 cells (6×10^6) were suspended altogether in 1.0 mL of R20C medium and incubated at 37° C. for 150 minutes, centrifuged with 250 g for 10 minutes, then 0.50 mL of supernatant was taken and dried in the bottle.
Radioactivity was measured by liquid scintillation and toluene-PPO-POPOP was used as a scintillant.

[2] = test system: guinea pig peritoneal derived adherent macrophages (gMφ); experiment: Effect on cellular immunity in vitro: gMφ killer cell activity against cRBC with or without cyclophosphamide; format: cell-based; conditions: second 20-hours incubation without CP; FIG. 4-1
Text: The effector (killer) cells for this experiment were adherent macrophages (gMφ) derived from guinea pig's peritoneal fluid cultured with RTAG (RPMI 1640 enriched with 7.5% v/v guinea pig serum). Cyclophosphamide (CP) was used as an immunosuppressive agent. Chicken red blood cells (cRBC) as target cells.
The experiment consisted of four series of experiments: gMφ+cRBC, gMφ+Imm+cRBC, gMφ+CP+cRBC, and gMφ+CP+Imm+cRBC, and immunovir (Imm) as immune response modifier.
A 200 to 250 g guinea pig was injected with 1 mL of thioglycolate medium, after 20 hours adherent macrophages derived from abdominal cavity (gMφ) were collected by aid of RPMI 1640, suspended in RTAG, then 0.9 mL of solution was pipetted into thirteen Falcon 12-well culture plates. The plates for group 1 and 2 to group 4 were 1 and 3, respectively. […] In other words, each well was filled with 1 ug/mL CP in group 2, 10 ug/mL in group 3, and 100 ug/mL in group 4. After incubation in a 5% CO2 incubator (35-37° C.), the medium in each well was replaced with fresh R7½G from group 1 (only 1 plate for control) to group 4. Then Imm was added from lane 1 to lane 4 (3 wells per lane) that the final concentration were 0, 0.1, 1, and 10 ug/mL, respectively. That was to say, from group 2 to group 4, lane 1 was a CP control, and lane 1 in plate 1 was gMφ control. […]

[3] = test system: HIV1; experiment: Anti-HIV1 activity in human venous blood mononuclear cells (HIV1P24 expression); format: cell-based; conditions: 21 days culture; FIG. 6
Method: Mononuclear cells derived from human venous blood (1×10^7 cells/0.80 mL) were suspended in capped Greiner incubation tube with R20C containing 40 ug/mL rIL-2, and 0.10 mL of immunovir (40 ug/mL or diluted with 4 fold) or, as a comparison, AZT (100, 10, or 1 ug/mL), then incubated in 5% CO2 incubator at 36-37° C. for 21 days.
Cells were precipitated by centrifugation (250 g, 5 minutes) every 3 days, and culture medium were replaced to fresh ones with identical ingredients. For antigen expression, cells were stained by mouse anti-HIV1P24 IgG1 and rabbit anti-mouse IgG1-FITC.
The percentage of cells with HIV1P24 gag gene expression, i.e., the ratio of fluorescent cells detected by indirect fluorescent antibody technique was calculated.

[4] = test system: mMφ/Mo; experiment: Effect on mice macrophages/mononuclear cells activities in vivo after CP immunosuppression; conditions: immunovirs 10 mg/kg or AZT 20 mg/kg via tail vein day 2 to 5; CP-treated mice; FIG. 5
Method: Two mice of each group were injected with 10 mg/kg.b.w of immunovir (O, mixture), immunovir A, B, C, D, or 20 mg/kg.b.w of AZT via tail vein in the afternoon from day 2 to day 5, respectively. Each mouse's abdominal cavity was injected with 0.5 mL of RTAC in the afternoon of day 5, and mMφ/Mo were collected from each mouse's abdominal cavity with 10 mL of R7 1⁄2C in the afternoon of day 6. Basal medium rich in deposit cells were taken, and 0.40 mL was pipetted into two wells of flat-bottomed 24-well Falcon culture dish. After incubation with 5% CO2 for 6 hours, 0.10 mL of cRBC (1%) was added into each well and incubation was carried out for 6 hours or overnight. Then suspended cells, i.e., cRBC, were sucked out, the well was gently washed with 0.5 mL of RPMI 1640, and 0.40 mL of RBMI 1640 and 5 ul of Liu Stain B solution were added again to stain mMφ, whereas cRBCs were unstainable. CP immuno suppression was removed by Immunovir(mix), Immunovir […]. but not AZT in mouse's body, and the efficacy of Mφ/Mo activity increased as shown in FIG. 5.

[5] = test system: cRBC; experiment: Hemagglutination activity; format: cell-based, chicken; conditions: 0.4% v/v cRBC, room temperature, 2 hours
Method: Immunovir A, B, C, and D, or concanavalin A with different concentrations were added into 2 mL of normal saline 0.4% v/v cRBC suspension in Kahn tube. The solution was mixed thoroughly and kept at room temperature for 2 hours to observe hema-agglutination.

[6] = Bioactivity of separated immunovir components (test not specified)

O=P1(N(CCCl)CCCl)NCCCO1 (stereo not drawn) [CP, Cyclophosphamide]
radioactivity released (51Cr from Yac-1 cells) [1]: inhibited | activity of gMφ after removal of CP [2]: unrecoverable

Cc1cn([C@H]2C[C@H](N=[N+]=[N-])[C@@H](CO)O2)c(=O)[nH]c1=O [AZT]
anti-HIV1 activities compared [3]: approximately the same | removal of CP immuno suppression in mouse's body (Mφ/Mo activity) [4]: not

concanavalin A
nature of hema-agglutination of cRBC (resuspension by shaking) [5]: firmly agglutinated with concanavalin A and could not be resuspended by shaking

CO[C@H]1O[C@H](CO)[C@@H](O)[C@H](O)[C@@H]1O [methyl-a-mannopyranoside]
bioactivity [6]: low bioactivity
